Measurements published in patent publication US20080089859A1, “ADMINISTRATION OF SLEEP RESTORATIVE AGENTS” (priority 2001, published 2008).
Marks after values point to notes of the source that are not given here.

What was measured:
[1] = system: rheumatoid arthritis (Ra) and Psoriatic arthritis (PsA) patients; test: Study of Example 1 continued to 18 months (Example 2); format: in vivo, human
Text: The study of Example 1 was continued to 18 months. […] Fibromyalgia was a surrogate for a lack of deep (e.g., stage IV) restorative sleep.
JC refers to the number of swollen tender joints.

[2] = system: patient with chronic gout; test: Treatment of a patient with chronic gout and severe synovitis; format: in vivo, human; settings: one patient; colchicine, hydroxychloroquine and Etanercept added together, before sleep agents
Protocol: Adding colchicine, hydroxychloroquine and Etanercept only allowed them to decrease prednisone to 15 mg qd.

[3] = system: rheumatoid arthritis (Ra) and Psoriatic arthritis (PsA) patients; test: Open-label retrospective chart analysis of patients starting Etanercept, with sleep/fibromyalgia treatment (Example 1); format: in vivo, human
Text: The effect of sleep disturbance and/or overt fibromyalgia (FM) on Etanercept (ENBREL®, Immunex) efficacy was monitored in an open-label, retrospective chart analysis of rheumatoid arthritis (Ra) and Psoriatic arthritis (PsA) patients starting Etanercept due to inadequate response to prior disease-modifying and steroid treatment. Sixty six (66) consecutive patients (19 males, 47 Females; 39 positive for rheumatoid factor for rheumatoid arthritis, 13 negative for rheumatoid factor for rheumatoid arthritis, 14 having PsA) were treated at a suburban, referral-based rheumatology clinic. The patients were monitored for swollen/tender joints (joint count, JC), fibromyalgia tender point score, restorative sleep quality, and concomitant medication use, before and after adding Etanercept treatment. Concomitant medication use included prednisone, methotrexate, non-steroidal anti-inflammatory drugs (NSAIDS), azothioprine, sulfasalazine, and hydroxychloroquine.
All patients with overt FM and non-restorative sleep were treated with options for fibromyalgia (FM), including Trazodone, Lorazepam, Clonazepam, Carisoprodol, and/or Pramipexole as needed to decrease FM pain and sleep disturbance as previously reported. (Arthritis & Rheumatology 43:9 A1599 (2000); Arthritis & Rheumatology 42:9 A385 (1999); Arthritis & Rheumatology 41:9 A1359 (1998).)
The patient criteria were as follows: The mean arthritis duration was 9.2±1.3 years. Etanercept use was 14±1.5 months. The average age of the patients was 50.5±4.3 years. Their average initial erythrocyte sedimentation rate (ESR) was 22.0±8.0. Previous DMARDs 2.4±0.3. Their initial Joint Count was as follows: PsA 8.3, Ra-8.1, and Ra+13.2 The disease groups were combined: 20 patients had active FM (aFM). 29 never had FM (no FR).

[4] = system: patients with rheumatoid arthritis; settings: cited from earlier work
[5] = system: patients with Ankylosing Spondylitis; test: Treatment of patients with Ankylosing Spondylitis; format: in vivo, human; settings: six patients after lorazepam or pramipexole, off Methotrexate and steroids
Protocol: Six patients with Ankylosing Spondylitis were treated according to the present invention. […] The patients were administered lorazepam 1-2 mg qhs or pramipexole 0.5-3.0 mg qhs.

**Q.** For Etanercept, which “MTX abs (absolute change of methotrexate use)” value ([1]; 18 months, Active FM (N 6)) is on record?
**A.** Its value is “(6) +0.8 mg”.

**Q.** What about the “Pred abs (absolute change of steroid use)” value ([1]; 18 months, Active FM (N 9)) of the same substance?
**A.** Its value is “(9) −7.15 mg”.

**Q.** And the “Joint count abs (absolute change)” value ([1]; 18 months, Active FM (N 10))?
**A.** Its value is “(10) −10.95”.

**Q.** And the “MTX abs (absolute change of methotrexate use)” value ([1]; 18 months, Inactive FM (N 9))?
**A.** The value was “(9) −20.1 mg”.

**Q.** What about the “Pred abs (absolute change of steroid use)” value ([1]; 18 months, Inactive FM (N 13)) of the same substance?
**A.** The value was “(13) −7.92 mg”.

**Q.** And the “Joint count abs (absolute change)” value ([1]; 18 months, Inactive FM (N 23))?
**A.** Its value is “(23) −8.98”.

**Q.** And the “MTX abs (absolute change of methotrexate use)” value ([1]; 18 months, No FM (N 16), p 0.0002 across groups)?
**A.** Its value is “(16) −17.5 mg”.

**Q.** What about the “Pred abs (absolute change of steroid use)” value ([1]; 18 months, No FM (N 19), p 0.8649 across groups) of the same substance?
**A.** Its value is “(19) −7.32 mg”.

**Q.** What about the “Joint count abs (absolute change)” value ([1]; 18 months, No FM (N 28), p 0.5685 across groups) of the same substance?
**A.** The value was “(28) −11.54”.

**Q.** And the “JC2, number of swollen tender joints, mean” value ([1]; patients converted from active FM to inactive FM, 12 months, study entry 9.1)?
**A.** The value was 4.6 # tender joints.

**Q.** And the “Pred2, Pred used, mean” value ([1]; patients converted from active FM to inactive FM, 12 months, study entry 10.5)?
**A.** The value was 5.5 mg.

**Q.** And the “MTX2, methotrexate used, mean” value ([1]; patients converted from active FM to inactive FM, 12 months, study entry 17.5)?
**A.** The value was 0 mg.

**Q.** What about the “JC3, number of swollen tender joints, mean” value ([1]; patients converted from active FM to inactive FM, 18 months, study entry 9.1) of the same substance?
**A.** Its value is 0 # tender joints.

**Q.** And the “Pred3, Pred used, mean” value ([1]; patients converted from active FM to inactive FM, 18 months, study entry 10.5)?
**A.** The value was 1.8 mg.

**Q.** What about the “MTX3, methotrexate used, mean” value ([1]; patients converted from active FM to inactive FM, 18 months, study entry 17.5) of the same substance?
**A.** Its value is 0 mg.

**Q.** And the Prednisone dose reached [2]?
**A.** Its Prednisone dose reached is 15 mg qd.

**Q.** And the “% Change Joint Count” value ([3]; No FM patients)?
**A.** The value was −93.9 ± 1.9%.

**Q.** What about the “% Change Methotrexate Dose” value ([3]; No FM patients) of the same substance?
**A.** Its value is −89.5 ± 8.4%.

**Q.** What about the “% Change Prednisone Dose” value ([3]; No FM patients) of the same substance?
**A.** Its value is −96.3 ± 4.0%.

**Q.** What about the “Δ Pred., prednisone dose after adding Etanercept” value (“Δ Pred., prednisone dose” for short) ([3]; No FM patients (29), before 8.0) of the same substance?
**A.** The value was 8.0 → 0.3 mg/d.

**Q.** And the “Δ MTX, methotrexate dose after adding Etanercept” value (“Δ MTX, methotrexate dose” for short) ([3]; No FM patients (29), before 19.1)?
**A.** Its value is 19.1 → 2.0 mg/wk.

**Q.** And the “Δ Joint Count, value after adding Etanercept” value (“Δ Joint Count, value” for short) ([3]; No FM patients (29), before Etanercept 11.6)?
**A.** Its value is 11.6 → 0.7.

**Q.** What about the “Medication Discontinued: Azathioprine/Sulfasalazine/Hydroxychloroquine (patients)” value ([3]; No FM patients, p 0.019 across groups) of the same substance?
**A.** The value was 10/11.

**Q.** What about the “Medication Discontinued: NSAIDs (patients)” value ([3]; No FM patients, p 0.045 across groups) of the same substance?
**A.** The value was 6/7.

**Q.** What about the “Δ Joint Count, value” value ([3]; aFM (active fibromyalgia) patients (20), before Etanercept 11.5, M-W P 0.066) of the same substance?
**A.** Its value is 11.5 → 5.9 *.

**Q.** And the “Medication Discontinued: Azathioprine/Sulfasalazine/Hydroxychloroquine (patients)” value ([3]; aFM patients)?
**A.** Its value is 4/8.

**Q.** And the “Medication Discontinued: NSAIDs (patients)” value ([3]; aFM patients)?
**A.** The value was 1/13.

**Q.** And the “Δ Pred., prednisone dose” value ([3]; aFM patients (20), before 10.3, M-W P 0.1)?
**A.** The value was 10.3 → 5.9 # mg/d.

**Q.** And the “Δ MTX, methotrexate dose” value ([3]; aFM patients (20), before 15.0, M-W P 0.002)?
**A.** Its value is 15.0 → 13.3 ** mg/wk.

**Q.** What about the “% Change Joint Count” value ([3]; aFM patients, M-W P 0.001) of the same substance?
**A.** The value was −47.8 ± 14.%.

**Q.** And the “% Change Prednisone Dose” value ([3]; aFM patients, M-W P 0.001)?
**A.** Its value is −48.5 ± 15.%.

**Q.** And the “% Change Methotrexate Dose” value ([3]; aFM patients, M-W P < 0.001)?
**A.** The value was −11.3 ± 4.5%.

**Q.** What about the “Δ Joint Count, value” value ([3]; iFM (inactive fibromyalgia) patients (17), before Etanercept 10.1) of the same substance?
**A.** Its value is 10.1 → 0.5.

**Q.** And the “% Change Joint Count” value ([3]; iFM patients)?
**A.** The value was −95.0 ± 1.9%.

**Q.** What about the “% Change Methotrexate Dose” value ([3]; iFM patients) of the same substance?
**A.** Its value is −100. ± 0.0%.

**Q.** And the “% Change Prednisone Dose” value ([3]; iFM patients)?
**A.** The value was −94.5 ± 3.6%.

**Q.** And the “Medication Discontinued: Azathioprine/Sulfasalazine/Hydroxychloroquine (patients)” value ([3]; iFM patients)?
**A.** The value was 9/9.

**Q.** What about the “Medication Discontinued: NSAIDs (patients)” value ([3]; iFM patients) of the same substance?
**A.** Its value is 4/7.

**Q.** And the “Δ Pred., prednisone dose” value ([3]; iFM patients (17), before 7.3)?
**A.** The value was 7.3 → 0.4 mg/d.

**Q.** And the “Δ MTX, methotrexate dose” value ([3]; iFM patients (17), before 19.7)?
**A.** The value was 19.7 → 0.0 mg/wk.

**Q.** And the “Patients who may not respond” value [4]?
**A.** The value was 15-20%.

**Q.** What about the “Disease activity under continued Etanercept” value [5] of the same substance?
**A.** Its value is “without evidence of active disease”.
